From publication PMC4917279 (Journal of Medicinal Chemistry, 2016)

Columns and labels:
[1] = Metabolic stability in rat hepatocytes; type: in vitro ADME; settings: read-out: CL (CLblood) (converted)
Protocol: Liver cells were distributed in Williams’ medium E containing 5% fetal calf serum (FCS) to glass vials at a density of 1.0 × 10^6 vital cells/mL. The test compound was added to a final concentration of 1 μM. During incubation, the hepatocyte suspensions were continuously shaken and aliquots were taken at 2, 8, 16, 30, 45, and 90 min, to which an equal volume of cold MeOH was immediately added. Samples were frozen at −20 °C overnight, then centrifuged (15 min, 3000 rpm), and the supernatant was analyzed with an Agilent 1200 HPLC system with LC-MS/MS detection. The half-life of a test compound was determined from the concentration–time plot. The intrinsic clearances were calculated from the half-life, together with additional parameters (liver blood flow, quantity of liver cells in vivo and in vitro).

[2] = target: T1, ABL1(F317L)-nonphosphorylated (Homo sapiens, UniProt P00519, F317L); test: KINOMEscan; type: binding; settings: read-out: %Ctrl @ 1000 nM
T1 construct: purchased DiscoveRx (KINOMEscan service)

[3] = target: T2, AKT1 (Homo sapiens, UniProt P31749); test: KINOMEscan; type: binding; settings: read-out: %Ctrl @ 1000 nM
T2 construct: purchased DiscoveRx KINOMEscan

[4] = target: T3, ANKK1 (Homo sapiens, UniProt Q8NFD2); test: KINOMEscan; type: binding; settings: read-out: %Ctrl @ 1000 nM
T3 construct: purchased DiscoveRx KINOMEscan

[5] = target: T4, BRAF (Homo sapiens, UniProt P15056); test: KINOMEscan; type: binding; settings: read-out: %Ctrl @ 1000 nM
T4 construct: purchased DiscoveRx KINOMEscan

[6] = target: T5, CAMK1 (Homo sapiens, UniProt Q14012); test: KINOMEscan; type: binding; settings: read-out: %Ctrl @ 1000 nM
T5 construct: purchased DiscoveRx KINOMEscan

[7] = target: T6, CIT (Homo sapiens, UniProt O14578); test: KINOMEscan; type: binding; settings: read-out: %Ctrl @ 1000 nM
T6 construct: purchased DiscoveRx KINOMEscan

[8] = target: T7, CSK (Homo sapiens, UniProt P41240); test: KINOMEscan; type: binding; settings: read-out: %Ctrl @ 1000 nM
T7 construct: purchased DiscoveRx KINOMEscan

[9] = target: T8, EPHA1 (Homo sapiens, UniProt P21709); test: KINOMEscan; type: binding; settings: read-out: %Ctrl @ 1000 nM
T8 construct: purchased DiscoveRx KINOMEscan

[10] = target: T9, EPHA5 (Homo sapiens, UniProt P54756); test: KINOMEscan; type: binding; settings: read-out: %Ctrl @ 1000 nM
T9 construct: purchased DiscoveRx KINOMEscan

[11] = target: T10, ERBB2 (Homo sapiens, UniProt P04626); test: KINOMEscan; type: binding; settings: read-out: %Ctrl @ 1000 nM
T10 construct: purchased DiscoveRx KINOMEscan

[12] = target: T11, ERK8 (Homo sapiens, UniProt Q8TD08); test: KINOMEscan; type: binding; settings: read-out: %Ctrl @ 1000 nM
T11 construct: purchased DiscoveRx KINOMEscan

[13] = target: T12, FAK (Homo sapiens, UniProt Q05397); test: KINOMEscan; type: binding; settings: read-out: %Ctrl @ 1000 nM
T12 construct: purchased DiscoveRx KINOMEscan

[14] = target: T13, FLT1 (Homo sapiens, UniProt P17948); test: KINOMEscan; type: binding; settings: read-out: %Ctrl @ 1000 nM
T13 construct: purchased DiscoveRx KINOMEscan

[15] = target: T14, FLT4 (Homo sapiens, UniProt P35916); test: KINOMEscan; type: binding; settings: read-out: %Ctrl @ 1000 nM
T14 construct: purchased DiscoveRx KINOMEscan

[16] = target: T15, GRK1 (Homo sapiens, UniProt Q15835); test: KINOMEscan; type: binding; settings: read-out: %Ctrl @ 1000 nM
T15 construct: purchased DiscoveRx KINOMEscan

[17] = target: T16, IGF1R (Homo sapiens, UniProt P08069); test: KINOMEscan; type: binding; settings: read-out: %Ctrl @ 1000 nM
T16 construct: purchased DiscoveRx KINOMEscan

[18] = target: T17, IKK-beta (Homo sapiens, UniProt O14920); test: KINOMEscan; type: binding; settings: read-out: %Ctrl @ 1000 nM
T17 construct: purchased DiscoveRx KINOMEscan

[19] = target: T18, IRAK1 (Homo sapiens, UniProt P51617); test: KINOMEscan; type: binding; settings: read-out: %Ctrl @ 1000 nM
T18 construct: purchased DiscoveRx KINOMEscan

[20] = target: T19, JAK1(JH2domain-pseudokinase) (Homo sapiens, UniProt P23458); test: KINOMEscan; type: binding; settings: read-out: %Ctrl @ 1000 nM
T19 construct: JAK1(JH2domain-pseudokinase); purchased DiscoveRx KINOMEscan

[21] = target: T20, JNK1 (Homo sapiens, UniProt P45983); test: KINOMEscan; type: binding; settings: read-out: %Ctrl @ 1000 nM
T20 construct: purchased DiscoveRx KINOMEscan

[22] = target: T21, LYN (Homo sapiens, UniProt P07948); test: KINOMEscan; type: binding; settings: read-out: %Ctrl @ 1000 nM
T21 construct: purchased DiscoveRx KINOMEscan

[23] = target: T22, MAP3K3 (Homo sapiens, UniProt Q99759); test: KINOMEscan; type: binding; settings: read-out: %Ctrl @ 1000 nM
T22 construct: purchased DiscoveRx KINOMEscan

[24] = target: T23, MARK2 (Homo sapiens, UniProt Q7KZI7); test: KINOMEscan; type: binding; settings: read-out: %Ctrl @ 1000 nM
T23 construct: purchased DiscoveRx KINOMEscan

[25] = target: T24, MST1 (Homo sapiens, UniProt Q13043); test: KINOMEscan; type: binding; settings: read-out: %Ctrl @ 1000 nM
T24 construct: purchased DiscoveRx KINOMEscan

[26] = target: T25, MST4 (Homo sapiens, UniProt Q9P289); test: KINOMEscan; type: binding; settings: read-out: %Ctrl @ 1000 nM
T25 construct: purchased DiscoveRx KINOMEscan

[27] = target: T26, NEK10 (Homo sapiens, UniProt Q6ZWH5); test: KINOMEscan; type: binding; settings: read-out: %Ctrl @ 1000 nM
T26 construct: purchased DiscoveRx KINOMEscan

[28] = target: T27, PIK3CD (Homo sapiens, UniProt O00329); test: KINOMEscan; type: binding; settings: read-out: %Ctrl @ 1000 nM
T27 construct: purchased DiscoveRx KINOMEscan

[29] = target: T28, PIP5K1A (Homo sapiens, UniProt Q99755); test: KINOMEscan; type: binding; settings: read-out: %Ctrl @ 1000 nM
T28 construct: purchased DiscoveRx KINOMEscan

[30] = target: T29, RIOK3 (Homo sapiens, UniProt O14730); test: KINOMEscan; type: binding; settings: read-out: %Ctrl @ 1000 nM
T29 construct: purchased DiscoveRx KINOMEscan

[31] = target: T30, RIPK4 (Homo sapiens, UniProt P57078); test: KINOMEscan; type: binding; settings: read-out: %Ctrl @ 1000 nM
T30 construct: purchased DiscoveRx KINOMEscan

[32] = target: T31, ROS1 (Homo sapiens, UniProt P08922); test: KINOMEscan; type: binding; settings: read-out: %Ctrl @ 1000 nM
T31 construct: purchased DiscoveRx KINOMEscan

[33] = target: T32, SRC (Homo sapiens, UniProt P12931); test: KINOMEscan; type: binding; settings: read-out: %Ctrl @ 1000 nM
T32 construct: purchased DiscoveRx KINOMEscan

[34] = target: T33, TAOK1 (Homo sapiens, UniProt Q7L7X3); test: KINOMEscan; type: binding; settings: read-out: %Ctrl @ 1000 nM
T33 construct: purchased DiscoveRx KINOMEscan

[35] = target: T34, TEC (Homo sapiens, UniProt P42680); test: KINOMEscan; type: binding; settings: read-out: %Ctrl @ 1000 nM
T34 construct: purchased DiscoveRx KINOMEscan

[36] = target: T35, TESK1 (Homo sapiens, UniProt Q15569); test: KINOMEscan; type: binding; settings: read-out: %Ctrl @ 1000 nM
T35 construct: purchased DiscoveRx KINOMEscan

[37] = target: T36, TLK2 (Homo sapiens, UniProt Q86UE8); test: KINOMEscan; type: binding; settings: read-out: %Ctrl @ 1000 nM
T36 construct: purchased DiscoveRx KINOMEscan

[38] = target: T37, ULK3 (Homo sapiens, UniProt Q6PHR2); test: KINOMEscan; type: binding; settings: read-out: %Ctrl @ 1000 nM
T37 construct: purchased DiscoveRx KINOMEscan

[39] = target: T38, WNK3 (Homo sapiens, UniProt Q9BYP7); test: KINOMEscan; type: binding; settings: read-out: %Ctrl @ 1000 nM
T38 construct: purchased DiscoveRx KINOMEscan

[40] = target: SMYD2 (Homo sapiens, UniProt Q9NRG4); test: Endogenous p53 methylation in KYSE-150 cells (Western blot); settings: 5 days

T33 sequence (Q7L7X3 whole entry): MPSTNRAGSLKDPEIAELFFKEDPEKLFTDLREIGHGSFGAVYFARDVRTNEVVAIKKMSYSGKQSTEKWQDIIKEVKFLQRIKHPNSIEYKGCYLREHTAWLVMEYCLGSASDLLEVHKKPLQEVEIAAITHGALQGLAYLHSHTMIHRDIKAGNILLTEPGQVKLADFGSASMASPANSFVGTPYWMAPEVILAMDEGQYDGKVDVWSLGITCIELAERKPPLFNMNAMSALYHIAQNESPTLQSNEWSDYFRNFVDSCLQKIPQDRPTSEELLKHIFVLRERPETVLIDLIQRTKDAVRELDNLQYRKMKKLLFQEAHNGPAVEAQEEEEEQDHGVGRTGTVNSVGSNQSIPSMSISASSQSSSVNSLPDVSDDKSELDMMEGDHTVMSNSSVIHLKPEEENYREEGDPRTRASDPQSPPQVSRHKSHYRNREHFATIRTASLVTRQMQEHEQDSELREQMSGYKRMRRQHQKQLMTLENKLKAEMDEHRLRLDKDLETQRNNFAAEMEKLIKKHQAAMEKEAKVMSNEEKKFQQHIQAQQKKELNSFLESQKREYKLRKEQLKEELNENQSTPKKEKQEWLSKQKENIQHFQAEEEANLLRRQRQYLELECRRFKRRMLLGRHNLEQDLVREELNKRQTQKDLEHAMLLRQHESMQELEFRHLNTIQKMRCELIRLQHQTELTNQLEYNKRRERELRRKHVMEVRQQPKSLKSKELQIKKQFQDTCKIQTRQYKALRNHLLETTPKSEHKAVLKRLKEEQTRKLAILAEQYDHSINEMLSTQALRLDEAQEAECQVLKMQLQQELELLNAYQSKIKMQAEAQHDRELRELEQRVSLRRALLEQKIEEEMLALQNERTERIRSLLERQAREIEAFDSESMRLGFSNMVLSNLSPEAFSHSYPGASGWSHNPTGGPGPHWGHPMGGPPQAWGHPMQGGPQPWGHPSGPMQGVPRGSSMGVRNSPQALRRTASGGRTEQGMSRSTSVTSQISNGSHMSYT
T13 sequence (P17948 27-1338): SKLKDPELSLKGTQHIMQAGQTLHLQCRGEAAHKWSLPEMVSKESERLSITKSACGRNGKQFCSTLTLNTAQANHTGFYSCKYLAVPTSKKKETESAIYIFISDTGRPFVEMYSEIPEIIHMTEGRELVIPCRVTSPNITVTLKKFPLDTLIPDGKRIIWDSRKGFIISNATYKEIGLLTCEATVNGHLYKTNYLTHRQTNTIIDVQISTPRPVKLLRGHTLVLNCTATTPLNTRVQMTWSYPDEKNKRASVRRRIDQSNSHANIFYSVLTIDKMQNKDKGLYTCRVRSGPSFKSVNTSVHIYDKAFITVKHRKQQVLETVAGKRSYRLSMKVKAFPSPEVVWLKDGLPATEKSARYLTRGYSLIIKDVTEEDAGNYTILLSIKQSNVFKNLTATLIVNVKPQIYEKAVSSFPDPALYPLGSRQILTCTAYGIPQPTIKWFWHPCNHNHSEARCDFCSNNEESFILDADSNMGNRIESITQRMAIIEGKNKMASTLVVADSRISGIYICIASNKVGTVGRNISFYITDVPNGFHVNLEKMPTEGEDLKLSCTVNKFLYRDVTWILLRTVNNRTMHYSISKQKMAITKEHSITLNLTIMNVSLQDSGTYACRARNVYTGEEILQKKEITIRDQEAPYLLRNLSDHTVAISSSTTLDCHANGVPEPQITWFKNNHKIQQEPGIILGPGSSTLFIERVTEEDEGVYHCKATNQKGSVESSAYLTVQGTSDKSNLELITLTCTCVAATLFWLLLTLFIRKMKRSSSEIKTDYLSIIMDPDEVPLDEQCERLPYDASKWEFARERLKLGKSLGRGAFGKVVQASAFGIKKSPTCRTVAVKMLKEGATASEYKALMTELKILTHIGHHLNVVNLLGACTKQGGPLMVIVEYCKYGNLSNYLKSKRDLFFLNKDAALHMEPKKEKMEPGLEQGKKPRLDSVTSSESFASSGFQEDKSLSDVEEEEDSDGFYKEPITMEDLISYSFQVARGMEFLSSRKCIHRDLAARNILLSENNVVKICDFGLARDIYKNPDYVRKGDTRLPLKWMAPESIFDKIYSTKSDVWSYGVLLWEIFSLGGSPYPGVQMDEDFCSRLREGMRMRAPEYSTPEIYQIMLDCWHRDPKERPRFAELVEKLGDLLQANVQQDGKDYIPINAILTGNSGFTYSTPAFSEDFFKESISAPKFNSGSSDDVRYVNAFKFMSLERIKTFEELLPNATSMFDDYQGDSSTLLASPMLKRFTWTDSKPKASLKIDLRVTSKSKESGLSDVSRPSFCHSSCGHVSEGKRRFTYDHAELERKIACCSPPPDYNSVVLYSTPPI
T31 sequence (P08922 28-2347): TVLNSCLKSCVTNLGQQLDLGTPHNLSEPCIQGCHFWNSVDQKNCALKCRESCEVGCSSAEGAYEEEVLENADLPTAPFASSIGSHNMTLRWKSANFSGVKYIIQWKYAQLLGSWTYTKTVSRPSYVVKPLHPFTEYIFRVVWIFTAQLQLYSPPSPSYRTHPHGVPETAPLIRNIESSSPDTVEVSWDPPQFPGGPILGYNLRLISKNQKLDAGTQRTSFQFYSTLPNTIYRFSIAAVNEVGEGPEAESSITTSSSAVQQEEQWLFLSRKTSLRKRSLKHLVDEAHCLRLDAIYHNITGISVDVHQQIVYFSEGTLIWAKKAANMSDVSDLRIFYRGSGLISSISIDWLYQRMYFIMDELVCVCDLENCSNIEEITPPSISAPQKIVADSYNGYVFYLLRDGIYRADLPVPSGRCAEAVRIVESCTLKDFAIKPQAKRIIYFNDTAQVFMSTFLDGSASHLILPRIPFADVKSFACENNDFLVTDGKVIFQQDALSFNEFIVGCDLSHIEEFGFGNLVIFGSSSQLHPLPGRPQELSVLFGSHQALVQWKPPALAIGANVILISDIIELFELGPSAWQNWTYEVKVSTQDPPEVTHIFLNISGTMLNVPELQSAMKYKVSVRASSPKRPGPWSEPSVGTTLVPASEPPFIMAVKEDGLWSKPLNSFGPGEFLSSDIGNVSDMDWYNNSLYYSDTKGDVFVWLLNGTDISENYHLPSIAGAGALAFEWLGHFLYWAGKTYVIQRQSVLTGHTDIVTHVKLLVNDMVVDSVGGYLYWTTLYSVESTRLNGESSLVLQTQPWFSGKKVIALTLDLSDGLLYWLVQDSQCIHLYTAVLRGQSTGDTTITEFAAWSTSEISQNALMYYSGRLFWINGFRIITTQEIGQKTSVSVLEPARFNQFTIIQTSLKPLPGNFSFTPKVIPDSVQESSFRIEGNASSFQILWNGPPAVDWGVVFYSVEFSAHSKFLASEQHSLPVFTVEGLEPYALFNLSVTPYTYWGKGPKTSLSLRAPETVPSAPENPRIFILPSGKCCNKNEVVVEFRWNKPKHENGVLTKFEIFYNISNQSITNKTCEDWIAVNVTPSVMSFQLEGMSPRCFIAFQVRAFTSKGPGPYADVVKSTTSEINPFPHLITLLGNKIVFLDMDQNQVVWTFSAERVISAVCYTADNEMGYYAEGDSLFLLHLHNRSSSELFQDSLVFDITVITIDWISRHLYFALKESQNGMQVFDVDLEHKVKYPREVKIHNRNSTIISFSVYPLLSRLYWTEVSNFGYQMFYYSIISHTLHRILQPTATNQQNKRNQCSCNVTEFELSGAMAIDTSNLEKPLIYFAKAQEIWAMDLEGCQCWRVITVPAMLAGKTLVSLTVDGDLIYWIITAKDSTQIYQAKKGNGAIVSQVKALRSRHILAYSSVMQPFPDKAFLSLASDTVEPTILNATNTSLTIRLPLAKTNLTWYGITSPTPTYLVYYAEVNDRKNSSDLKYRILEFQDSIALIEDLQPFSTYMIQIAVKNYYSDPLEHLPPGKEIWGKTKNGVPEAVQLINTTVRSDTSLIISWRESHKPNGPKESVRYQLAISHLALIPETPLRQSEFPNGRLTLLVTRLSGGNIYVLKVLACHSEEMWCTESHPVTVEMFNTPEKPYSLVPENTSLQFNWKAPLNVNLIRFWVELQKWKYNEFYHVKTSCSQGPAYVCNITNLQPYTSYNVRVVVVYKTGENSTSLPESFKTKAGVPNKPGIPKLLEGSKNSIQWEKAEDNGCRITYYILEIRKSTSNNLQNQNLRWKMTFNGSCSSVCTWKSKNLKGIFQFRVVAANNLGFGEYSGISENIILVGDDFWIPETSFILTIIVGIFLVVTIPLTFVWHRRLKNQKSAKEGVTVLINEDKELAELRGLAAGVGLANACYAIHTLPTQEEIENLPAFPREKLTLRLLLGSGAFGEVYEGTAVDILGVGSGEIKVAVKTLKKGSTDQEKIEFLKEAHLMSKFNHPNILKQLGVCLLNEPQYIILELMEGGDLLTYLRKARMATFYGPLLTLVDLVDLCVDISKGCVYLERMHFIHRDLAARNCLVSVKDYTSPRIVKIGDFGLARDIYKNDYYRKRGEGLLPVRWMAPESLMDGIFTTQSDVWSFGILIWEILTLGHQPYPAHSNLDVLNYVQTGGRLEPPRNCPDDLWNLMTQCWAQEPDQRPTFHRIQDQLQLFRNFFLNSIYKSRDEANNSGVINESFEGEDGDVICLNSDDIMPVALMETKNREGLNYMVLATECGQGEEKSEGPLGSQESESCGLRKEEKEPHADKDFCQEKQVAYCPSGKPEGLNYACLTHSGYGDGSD
T19 sequence (P23458 583-855 limits assumed): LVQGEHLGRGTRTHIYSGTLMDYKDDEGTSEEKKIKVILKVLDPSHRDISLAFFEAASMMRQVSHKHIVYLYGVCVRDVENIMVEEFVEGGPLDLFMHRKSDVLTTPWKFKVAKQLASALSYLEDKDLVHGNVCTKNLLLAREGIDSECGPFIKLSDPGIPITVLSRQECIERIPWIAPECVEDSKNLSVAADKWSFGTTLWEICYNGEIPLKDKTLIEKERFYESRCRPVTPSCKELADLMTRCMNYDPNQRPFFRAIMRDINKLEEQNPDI

## CCN(C(=O)CO)[C@H]1CN(/C(=N\C#N)Nc2cccc(OC(F)F)c2)N=C1c1ccc(Cl)c(Cl)c1 [(S)-4]
[1]
  CLhep predicted at […], 1 µM: 2.5 L/h/kg
[2]
  remaining binding at 1 µM: 100%
[3]
  remaining binding at 1 µM: 84%
[4]
  remaining binding at 1 µM: 92%
[5]
  remaining binding at 1 µM: 100%
[6]
  remaining binding at 1 µM: 85%
[7]
  remaining binding at 1 µM: 63%
[8]
  remaining binding at 1 µM: 91%
[9]
  remaining binding at 1 µM: 86%
[10]
  remaining binding at 1 µM: 100%
[11]
  remaining binding at 1 µM: 87%
[12]
  remaining binding at 1 µM: 96%
[13]
  remaining binding at 1 µM: 99%
[14]
  remaining binding at 1 µM: 95%
[15]
  remaining binding at 1 µM: 87%
[16]
  remaining binding at 1 µM: 93%
[17]
  remaining binding at 1 µM: 97%
[18]
  remaining binding at 1 µM: 100%
[19]
  remaining binding at 1 µM: 92%
[20]
  remaining binding at 1 µM: 100%
[21]
  remaining binding at 1 µM: 96%
[22]
  remaining binding at 1 µM: 80%
[23]
  remaining binding at 1 µM: 73%
[24]
  remaining binding at 1 µM: 99%
[25]
  remaining binding at 1 µM: 68%
[26]
  remaining binding at 1 µM: 81%
[27]
  remaining binding at 1 µM: 100%
[28]
  remaining binding at 1 µM: 81%
[29]
  remaining binding at 1 µM: 70%
[30]
  remaining binding at 1 µM: 46%
[31]
  remaining binding at 1 µM: 100%
[32]
  remaining binding at 1 µM: 68%
[33]
  remaining binding at 1 µM: 79%
[34]
  remaining binding at 1 µM: 89%
[35]
  remaining binding at 1 µM: 99%
[36]
  remaining binding at 1 µM: 94%
[37]
  remaining binding at 1 µM: 93%
[38]
  remaining binding at 1 µM: 74%
[39]
  remaining binding at 1 µM: 93%
[40]
  Endogenous p53 methylation: significant reduction of methylation
